Source: patent US4731486A, “Hydroformylation using low volatile phosphine ligands” (Union Carbide Corporation, priority 1986, dated 1988)

Assays:
[1] = Batch hydroformylation of propylene in stirred autoclave (Examples 1, 2, 11, 14, 19)
[2] = Solubility of TPPMS-Na in nonanal with various added solubilizing agents; format: physicochemical
Experimental: The solubility of a monosulfonated triphenylphosphine sodium salt ligand (TPPMS-Na) having the formula [drawing 28] was measured in C9 aldehyde (nonanal) in the presence of various added solubilizing agents and various mixtures of such agents for the ligand. […] The solubilizing agents and their mixtures were employed in a 1:2 weight:weight ratio with the nonanal.

[3] = Solubility of metal salt ligands in different aldehydes; format: physicochemical
[4] = Batch hydroformylation of hexene-1 (Example 14); settings: Texanol/TPEG-990 3:1; 100° C.; 300 ppm Rh; 8.7 wt. % ligand; 75 psia 4:1 H2:CO
Experimental: Each rhodium catalytic precursor solution so prepared was then employed to hydroformylate propylene in a magnetically stirred, 100 mL capacity, stainless steel autoclave which was attached to a gas manifold for introducing gases to the desired partial pressures. The autoclave was also equipped with a pressure calibrator for determining reaction pressure to ±0.01 psia. and a platinum resistance thermometer for determining reactor solution temperatures to ±0.10° C. The reactor was heated externally by two 300 watt heating bands. The reactor solution temperature was controlled by a platinum resistance sensor connected to an external proportional temperature controller for controlling the temperature of the external band heaters.
In each non-aqueous hydroformylation reaction, about 15 milliliters (about 14 grams) of the rhodium catalytic precursor solution so prepared was charged to the autoclave reactor under nitrogen and heated to the reaction temperature employed (as given in Table 1 below). […]
The hydroformylation reaction rate in gram moles per liter per hour of C4 aldehydes produced was determined from sequential 5 psia. pressure drops in the reactor spanning the nominal operating pressure in the reactor, while the mole ratio of linear (n-butyraldehyde) to branched (2-methylpropionaldehyde) product was measured by gas chromatography and the results are given in Table 1 below. […]

[5] = Solubility of metal salt ligands in nonanal with added solubilizing agent; format: physicochemical; settings: 25° C.; nonanal with 1:4 CARBOWAX TPEG-900/TERGITOL NP-9
[6] = Solubility of TPPMS-Na in various aldehydes with solubilizing agent mixture; format: physicochemical; settings: TERGITOL 24-L-75N/CARBOWAX TPEG-900 (4:1)
Text: The solubilizing agent mixture was employed in a 1:2 weight:weight ratio with the various aldehydes.

[7] = TERGITOL 15-S-3/CARBOWAX PEG 600/Dimethyl Sulfoxide (4:1:1), 100° C., 200 ppm Rh, 90 psia 1:1:1 H2:CO:C3H6
[8] = TERGITOL 15-S-7/CARBOWAX TPEG 990/N-Methyl Pyrolidone (4:1:1), 100° C., 200 ppm Rh, 90 psia 1:1:1 H2:CO:C3H6
[9] = TERGITOL 15-S-7, 100° C., 200 ppm Rh, 90 psia 1:1:1 H2:CO:C3H6
[10] = TERGITOL 24-L-75N/NIAX PPG 1025 (4:1), 100° C., 200 ppm Rh, 90 psia 1:1:1 H2:CO:C3H6
[11] = TERGITOL NP-4/CARBOWAX TPEG 990 (4:1), 100° C., 200 ppm Rh, 90 psia 1:1:1 H2:CO:C3H6
[12] = TERGITOL NP-9, 100° C., 200 ppm Rh, 90 psia 1:1:1 H2:CO:C3H6
[13] = Texanol/TPEG-990 3:1, 90° C., 300 ppm Rh, 8.7 wt. % ligand, 90 psia 1:1:1 H2:CO:C3H6
[14] = aqueous (water as solvent), 100° C., 300 ppm Rh, 90 psia 1:1:1 H2:CO:Propylene
[15] = non-aqueous (Texanol/Carbowax TPEG990 2.6:1), 100° C., 300 ppm Rh, 90 psia 1:1:1 H2:CO:Propylene

In the case of `O=S(=O)([O-])c1cccc(P(c2ccccc2)c2ccccc2)c1.[Na+]`, the “Linear/Branched Aldehyde Mole Ratio” value ([1]; 200 ppm Rh, about 120 mole equivalents ligand, 100° C., 60 psia 1:1:1 H2:CO:C3H6, Texanol/Carbowax PEG-600 10:1) is reported as 6.4, the “Reaction Rate (C4 aldehydes)” value ([1]; 200 ppm Rh, about 120 mole equivalents ligand, 100° C., 60 psia 1:1:1 H2:CO:C3H6, Texanol/Carbowax PEG-600 10:1, average of two runs) is reported as 0.28 Gmoles/L/Hr and the “Linear/Branched Aldehyde Mole Ratio” value [1, 7] is reported as 5.6. For the same molecule, the “Reaction Rate (C4 aldehydes)” value [1, 7] was 0.25 G moles/L/hr, the “Linear/Branched Aldehyde Mole Ratio” value [1, 8] was 5.0 and the “Reaction Rate (C4 aldehydes)” value [1, 8] was 0.75 G moles/L/hr. The “Linear/Branched Aldehyde Mole Ratio” value [1, 9] was 4.7, the “Reaction Rate (C4 aldehydes)” value [1, 9] was 0.49 G moles/L/hr and the “Linear/Branched Aldehyde Mole Ratio” value [1, 10] was 5.3. For the same molecule, the “Reaction Rate (C4 aldehydes)” value [1, 10] was 0.54 G moles/L/hr, the “Linear/Branched Aldehyde Mole Ratio” value [1, 11] was 6.0 and the “Reaction Rate (C4 aldehydes)” value [1, 11] was 0.59 G moles/L/hr. For the same molecule, the “Linear/Branched Aldehyde Mole Ratio” value [1, 12] was 5.1, the “Reaction Rate (C4 aldehydes)” value [1, 12] was 0.67 G moles/L/hr and the “Linear/Branched Aldehyde Mole Ratio” value [1, 13] was 5.0. The “Reaction Rate” value [1, 13] was 1.72 G moles/L/hr, the “Linear/Branched Aldehyde Mole Ratio” value [1, 14] was 19.3 and the “Reaction Rate” value [1, 14] was 0.07 G Moles/L/Hr. For the same molecule, the “Linear/Branched Aldehyde Mole Ratio” value [1, 15] was 4.8, the “Reaction Rate” value [1, 15] was 2.60 G Moles/L/Hr and the “TPPMS-Na Solubility” value ([2]; NIAX PPG-1025, 25 deg. C.) was less than 2 Weight Percent. The “TPPMS-Na Solubility” value ([2]; NIAX PPG-1025, 100 deg. C.) was 2 Weight Percent, the “TPPMS-Na Solubility” value ([2]; TERGITOL 15-S-3/CARBOWAX PEG 600 (4:1), 25 deg. C.) was 2 Weight Percent and the “TPPMS-Na Solubility” value ([2]; TERGITOL 15-S-3/CARBOWAX PEG 600 (4:1), 100 deg. C.) was greater than 10 Weight Percent. The “TPPMS-Na Solubility” value ([2]; TERGITOL 15-S-3/CARBOWAX PEG 600/Methanol (4:1:1), 25 deg. C.) was greater than 6 Weight Percent, the “TPPMS-Na Solubility” value ([2]; TERGITOL 15-S-3, 25 deg. C.) was 2 Weight Percent and the “TPPMS-Na Solubility” value ([2]; TERGITOL 15-S-3, 100 deg. C.) was 8 Weight Percent. For the same molecule, the “TPPMS-Na Solubility” value ([2]; TERGITOL 15-S-7/CARBOWAX TPEG 990 (3:1), 25 deg. C.) was 10 Weight Percent, the “TPPMS-Na Solubility” value ([2]; TERGITOL 15-S-7/CARBOWAX TPEG 990 (3:1), 100 deg. C.) was 8 Weight Percent and the “TPPMS-Na Solubility” value ([2]; TERGITOL 15-S-7, 25 deg. C.) was 4 Weight Percent. The “TPPMS-Na Solubility” value ([2]; TERGITOL 15-S-7, 100 deg. C.) was 8 Weight Percent, the “TPPMS-Na Solubility” value ([2]; TERGITOL 24-L-15N, 25 deg. C.) was 2 Weight Percent and the “TPPMS-Na Solubility” value ([2]; TERGITOL 24-L-15N, 100 deg. C.) was 8 Weight Percent. For the same molecule, the “TPPMS-Na Solubility” value ([2]; TERGITOL 24-L-50N/CARBOWAX PEG 600 (4:1), 25 deg. C.) was greater than 10 Weight Percent, the “TPPMS-Na Solubility” value ([2]; TERGITOL 24-L-50N/CARBOWAX PEG 600 (4:1), 100 deg. C.) was greater than 10 Weight Percent and the “TPPMS-Na Solubility” value ([2]; TERGITOL 24-L-50N, 25 deg. C.) was 4 Weight Percent. The “TPPMS-Na Solubility” value ([2]; TERGITOL 24-L-50N, 100 deg. C.) was 8 Weight Percent, the “TPPMS-Na Solubility” value ([2]; TERGITOL 24-L-75N/CARBOWAX TPEG 990 (4:1), 25 deg. C.) was 12 Weight Percent and the “TPPMS-Na Solubility” value ([2]; TERGITOL 24-L-75N/CARBOWAX TPEG 990 (4:1), 100 deg. C.) was 14 Weight Percent. For the same molecule, the “TPPMS-Na Solubility” value ([2]; TERGITOL 24-L-75N/CARBOWAX TPEG 990/Methanol (4:1:1), 25 deg. C.) was greater than 16 Weight Percent, the “TPPMS-Na Solubility” value ([2]; TERGITOL 24-L-75N/NIAX PPG 1025 (2:1), 25 deg. C.) was greater than 10 Weight Percent and the “TPPMS-Na Solubility” value ([2]; TERGITOL 24-L-75N/NIAX PPG 1025 (2:1), 100 deg. C.) was greater than 10 Weight Percent. For the same molecule, the “TPPMS-Na Solubility” value ([2]; TERGITOL 24-L-75N, 25 deg. C.) was 6 Weight Percent, the “TPPMS-Na Solubility” value ([2]; TERGITOL 24-L-75N, 100 deg. C.) was 8 Weight Percent and the “TPPMS-Na Solubility” value ([2]; TERGITOL 25-L-5, 25 deg. C.) was 4 Weight Percent. For the same molecule, the “TPPMS-Na Solubility” value ([2]; TERGITOL 25-L-5, 100 deg. C.) was 6 Weight Percent, the “TPPMS-Na Solubility” value ([2]; TERGITOL 26-L-5, 25 deg. C.) was 2 Weight Percent and the “TPPMS-Na Solubility” value ([2]; TERGITOL 26-L-5, 100 deg. C.) was 6 Weight Percent. The “TPPMS-Na Solubility” value ([2]; TERGITOL NP-4/CARBOWAX TPEG 990 (4:1), 25 deg. C.) was 8 Weight Percent, the “TPPMS-Na Solubility” value ([2]; TERGITOL NP-4/CARBOWAX TPEG 990 (4:1), 100 deg. C.) was 10 Weight Percent and the “TPPMS-Na Solubility” value ([2]; TERGITOL NP-4, 25 deg. C.) was 2 Weight Percent. For the same molecule, the “TPPMS-Na Solubility” value ([2]; TERGITOL NP-4, 100 deg. C.) was 6 Weight Percent, the “TPPMS-Na Solubility” value ([2]; TERGITOL NP-9/CARBOWAX PEG 600 (3:1), 25 deg. C.) was 10 Weight Percent and the “TPPMS-Na Solubility” value ([2]; TERGITOL NP-9/CARBOWAX PEG 600 (3:1), 100 deg. C.) was greater than 10 Weight Percent. For the same molecule, the “TPPMS-Na Solubility” value ([2]; TERGITOL NP-9/CARBOWAX PEG 600/Methanol (3:1:1), 25 deg. C.) was greater than 12 Weight Percent, the “TPPMS-Na Solubility” value ([2]; TERGITOL NP-9, 25 deg. C.) was 4 Weight Percent and the “TPPMS-Na Solubility” value ([2]; TERGITOL NP-9, 100 deg. C.) was 6 Weight Percent. The “Metal Salt Solubility” value ([3]; Butyraldehyde, 60 °C) was 10.0 Wt. %, the “Metal Salt Solubility” value ([3]; Heptanal, 80 °C) was 0.4 Wt. % and the “Metal Salt Solubility” value ([3]; Nonanal, 80 °C) was 0.5 Wt. %. The “Metal Salt Solubility” value ([3]; Propionaldehyde, 35 °C) was 16.3 Wt. %, the “Metal Salt Solubility” value ([3]; Tridecanal, 80 °C) was 0.5 Wt. % and the “Metal Salt Solubility” value ([3]; Valeraldehyde, 80 °C) was 5.3 Wt. %. The “Linear/Branched Aldehyde Mole Ratio” value [4] was 13.4, the “Reaction Rate” value [4] was 5.21 G moles/L/hr and the “Metal Salt Solubility” value [5] was 25 Wt. %. For the same molecule, the “TPPMS-Na Solubility at 25 deg. C.” value ([6]; Butyraldehyde) was greater than 20 Weight Percent, the “TPPMS-Na Solubility at 25 deg. C.” value ([6]; Heptanal) was 18 Weight Percent and the “TPPMS-Na Solubility at 25 deg. C.” value ([6]; Nonanal) was 12 Weight Percent. The “TPPMS-Na Solubility at 25 deg. C.” value ([6]; Tridecanal) was 8 Weight Percent and the “TPPMS-Na Solubility at 25 deg. C.” value ([6]; Valeraldehyde) was greater than 20 Weight Percent.
